In US12655116B2, “Substituted isophthalic acid diamides” (Bayer Aktiengesellschaft, priority 2020, dated 2026):

Tests used:
AVEFA = test: Pre-emergence herbicidal action against AVEFA; format: in vivo, Avena fatua; settings: Avena fatua, 504 h, pre-emergence
In short: (§1)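 Pre-emergence soil-surface spray of formulated compound (WP or EC; 600 to 800 l/ha; 0.2% wetting agent) over seeds sown in sandy loam. After 3 weeks under greenhouse conditions, damage is estimated visually in percent against untreated plants.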

AMARE [1] = test: Post-emergence herbicidal action against AMARE; format: in vivo, Amaranthus retroflexus; settings: Amaranthus retroflexus, 504 h, visual assessment about 3 weeks after treatment, 100% = plants have died, 0% = like control plants
In short: (§2)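 Greenhouse plants in sandy loam were sprayed at the one-leaf stage, 2 to 3 weeks after sowing, with WP or EC formulations as aqueous suspension or emulsion (600 to 800 l/ha water, 0.2% wetting agent). Visual damage was scored about 3 weeks later versus untreated controls, 0% = like control, 100% = dead.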

AMARE [2] = test: Pre-emergence herbicidal action against AMARE; format: in vivo, Amaranthus retroflexus; settings: Amaranthus retroflexus, 504 h, 100% = plants have died, 0% = like control plants; for pest or weed control at 20 g/ha / pest or weed control at 80 g/ha: scored visually after 3 weeks vs untreated controls
In short: as §1

STEME [3] = test: Pre-emergence herbicidal action against STEME; format: in vivo, Stellaria media; settings: Stellaria media, 504 h; for pest or weed control at 80 g/ha: dosage 80 g/ha
In short: as §1

STEME [4] = test: Post-emergence herbicidal action against STEME; format: in vivo, Stellaria media; settings: Stellaria media, 504 h
In short: as §2

VIOTR [5] = test: Pre-emergence herbicidal action against VIOTR; format: in vivo, Viola tricolor; settings: Viola tricolor, 504 h; for pest or weed control at 80 g/ha: dosage 80 g/ha
In short: as §1

LOLRI [6] = test: Post-emergence herbicidal action against LOLRI; format: in vivo, Lolium rigidum; settings: Lolium rigidum, 504 h
In short: as §2

ALOMY = test: Pre-emergence herbicidal action against ALOMY; format: in vivo, Alopecurus myosuroides; settings: Alopecurus myosuroides, 504 h, pre-emergence
In short: as §1

MATIN = test: Pre-emergence herbicidal action against MATIN; format: in vivo, Matricaria inodora; settings: Tripleurospermum inodorum, 504 h; for pest or weed control at 80 g/ha: dosage 80 g/ha
In short: as §1

SETVI [7] = test: Post-emergence herbicidal action against SETVI; format: in vivo, Setaria viridis; settings: Setaria viridis, 504 h; for pest or weed control at 20 g/ha: dosage 20 g/ha
In short: as §2

VERPE [8] = test: Post-emergence herbicidal action against VERPE; format: in vivo, Veronica persica; settings: Veronica persica, 504 h
In short: as §2

HORMU [9] = test: Post-emergence herbicidal action against HORMU; format: in vivo, Hordeum murinum; settings: Hordeum murinum, 504 h; for pest or weed control at 20 g/ha: dosage 20 g/ha
In short: as §2

POLCO = test: Pre-emergence herbicidal action against POLCO; format: in vivo, Polygonum convolvulus; settings: Fallopia convolvulus, 504 h
In short: as §1

ABUTH [10] = test: Post-emergence herbicidal action against ABUTH; format: in vivo, Abutilon theophrasti; settings: Abutilon theophrasti, 504 h, visual assessment about 3 weeks after treatment vs untreated controls; for pest or weed control at 5 g/ha: dosage 5 g/ha; for pest or weed control at 20 g/ha: dosage 20 g/ha
In short: as §2

VIOTR [11] = test: Post-emergence herbicidal action against VIOTR; format: in vivo, Viola tricolor; settings: Viola tricolor, 504 h
In short: as §2

ECHCG = test: Pre-emergence herbicidal action against ECHCG; format: in vivo, Echinochloa crus-galli; settings: Echinochloa crus-galli, 504 h
In short: as §1

VERPE [12] = test: Pre-emergence herbicidal action against VERPE; format: in vivo, Veronica persica; settings: Veronica persica, 504 h; for pest or weed control at 80 g/ha: dosage 80 g/ha
In short: as §1

ABUTH [13] = test: Pre-emergence herbicidal action against ABUTH; format: in vivo, Abutilon theophrasti; settings: Abutilon theophrasti, 504 h; for pest or weed control at 80 g/ha: scored visually after 3 weeks vs untreated controls (100% = plants have died, 0% = like control plants); for pest or weed control at 20 g/ha: dosage 20 g/ha, scored visually after 3 weeks vs untreated controls, read-out: Pre-emergence action against ABUTH (herbicidal activity in percent)
In short: as §1

LOLRI [14] = test: Pre-emergence herbicidal action against LOLRI; format: in vivo, Lolium rigidum; settings: Lolium rigidum, 504 h
In short: as §1

HORMU [15] = test: Pre-emergence herbicidal action against HORMU; format: in vivo, Hordeum murinum; settings: Hordeum murinum, 504 h, pre-emergence
In short: as §1

PHBPU = test: Post-emergence herbicidal action against PHBPU; format: in vivo, Pharbitis purpurea; settings: Ipomoea purpurea, 504 h
In short: as §2

SETVI [16] = test: Pre-emergence herbicidal action against SETVI; format: in vivo, Setaria viridis; settings: Setaria viridis, 504 h; for pest or weed control at 80 g/ha: dosage 80 g/ha
In short: as §1

[17] = 100% = plants have died, 0% = like control plants
[18] = 320 g/ha, scored visually after 3 weeks, 100% = plants have died, 0% = like control plants

CCc1c(C(=O)Nc2nnnn2C)ccc(C(F)(F)F)c1C(=O)NC1CC1 [Example 1-273]
pest or weed control at 80 g/ha (AVEFA): 100%
pest or weed control at 20 g/ha (AMARE [1]): 100%
pest or weed control at 20 g/ha (AMARE [2]): 100%
pest or weed control at 80 g/ha (AMARE [2]): 100%
pest or weed control at 20 g/ha (STEME [3]; dosage 20 g/ha): 100%
pest or weed control at 80 g/ha (STEME [3]): 100%
pest or weed control at 20 g/ha (STEME [4]; 20 g/ha): 100%
pest or weed control at 5 g/ha (STEME [4]; dosage 5 g/ha): 90%
pest or weed control at 20 g/ha (VIOTR [5]; dosage 20 g/ha): 100%
pest or weed control at 80 g/ha (VIOTR [5]): 100%
pest or weed control at 20 g/ha (LOLRI [6]; dosage 20 g/ha): 80%
pest or weed control at 80 g/ha (ALOMY; 80 g/ha, scored visually after 3 weeks vs untreated controls (100% = plants have died, 0% = like control plants)): 90%
pest or weed control at 20 g/ha (MATIN; dosage 20 g/ha): 100%
pest or weed control at 80 g/ha (MATIN): 100%
pest or weed control at 5 g/ha (SETVI [7]; dosage 5 g/ha): 80%
pest or weed control at 20 g/ha (SETVI [7]): 100%
pest or weed control at 20 g/ha (VERPE [8]; 20 g/ha): 90%
pest or weed control at 5 g/ha (HORMU [9]; dosage 5 g/ha): 80%
pest or weed control at 20 g/ha (HORMU [9]): 90%
pest or weed control at 80 g/ha (POLCO; dosage 80 g/ha): 90%
pest or weed control at 5 g/ha (ABUTH [10]): 90%
pest or weed control at 20 g/ha (ABUTH [10]): 90%
pest or weed control at 5 g/ha (VIOTR [11]; 5 g/ha): 100%
pest or weed control at 20 g/ha (VIOTR [11]; 20 g/ha): 100%
pest or weed control at 20 g/ha (ECHCG; 20 g/ha): 90%
pest or weed control at 80 g/ha (ECHCG): 100%
pest or weed control at 80 g/ha (VERPE [12]): 90%
pest or weed control at 80 g/ha (ABUTH [13]): 100%
pest or weed control at 20 g/ha (ABUTH [13]; [17]): 100%
pest or weed control at 80 g/ha (LOLRI [14]; 80 g/ha): 80%
pest or weed control at 80 g/ha (HORMU [15]; 80 g/ha): 80%
pest or weed control at 20 g/ha (PHBPU; dosage 20 g/ha): 80%
pest or weed control at 20 g/ha (SETVI [16]; dosage 20 g/ha): 100%
pest or weed control at 80 g/ha (SETVI [16]): 100%

Cn1nnnc1NC(=O)c1ccc(C(F)(F)F)c(C(N)=O)c1Cl [Example 1-338]
pest or weed control at 80 g/ha (AVEFA): 90%
pest or weed control at 320 g/ha (AVEFA; [18]): 100%
pest or weed control at 20 g/ha (AMARE [1]): 90%
pest or weed control at 80 g/ha (AMARE [1]; 80 g/ha): 100%
pest or weed control at 20 g/ha (AMARE [2]): 100%
pest or weed control at 80 g/ha (AMARE [2]): 100%
pest or weed control at 320 g/ha (AMARE [2]; 320 g/ha, scored visually after 3 weeks): 100%
pest or weed control at 80 g/ha (STEME [3]): 90%
pest or weed control at 320 g/ha (STEME [3]; dosage 320 g/ha): 90%
pest or weed control at 80 g/ha (STEME [4]; 80 g/ha): 90%
pest or weed control at 80 g/ha (VIOTR [5]): 80%
pest or weed control at 320 g/ha (VIOTR [5]; dosage 320 g/ha): 100%
pest or weed control at 80 g/ha (LOLRI [6]; dosage 80 g/ha): 80%
pest or weed control at 320 g/ha (ALOMY; [18]): 100%
pest or weed control at 80 g/ha (MATIN): 80%
pest or weed control at 320 g/ha (MATIN; dosage 320 g/ha): 100%
pest or weed control at 20 g/ha (SETVI [7]): 80%
pest or weed control at 80 g/ha (SETVI [7]; dosage 80 g/ha): 100%
pest or weed control at 80 g/ha (VERPE [8]; 80 g/ha): 100%
pest or weed control at 20 g/ha (HORMU [9]): 80%
pest or weed control at 80 g/ha (HORMU [9]; dosage 80 g/ha): 90%
pest or weed control at 320 g/ha (POLCO; dosage 320 g/ha): 80%
pest or weed control at 5 g/ha (ABUTH [10]): 90%
pest or weed control at 20 g/ha (ABUTH [10]): 90%
pest or weed control at 80 g/ha (ABUTH [10]; dosage 80 g/ha): 100%
pest or weed control at 80 g/ha (VIOTR [11]; 80 g/ha): 90%
pest or weed control at 80 g/ha (ECHCG): 90%
pest or weed control at 320 g/ha (ECHCG; 320 g/ha): 100%
pest or weed control at 80 g/ha (VERPE [12]): 90%
pest or weed control at 320 g/ha (VERPE [12]; dosage 320 g/ha): 100%
pest or weed control at 80 g/ha (ABUTH [13]): 100%
pest or weed control at 320 g/ha (ABUTH [13]; Dosage: 320 g/ha, scored visually after 3 weeks, 100% = plants have died, 0% = like control plants): 100%
pest or weed control at 20 g/ha (ABUTH [13]; [17]): 80%
pest or weed control at 320 g/ha (LOLRI [14]; 320 g/ha): 90%
pest or weed control at 320 g/ha (HORMU [15]; 320 g/ha): 100%
pest or weed control at 80 g/ha (PHBPU; dosage 80 g/ha): 90%
pest or weed control at 80 g/ha (SETVI [16]): 90%
pest or weed control at 320 g/ha (SETVI [16]; dosage 320 g/ha): 100%
